Test results taken from patent publication US11168079B2, “Alkene compounds as farnesoid x receptor modulators” (BRISTOL-MYERS SQUIBB COMPANY, priority 2017, dated 2021).
pEC50: −log10 of the molar value.

Molecular target: T1, human FXR (Homo sapiens, UniProt Q96RI1)
T1 sequence (Q96RI1 262-486 limits assumed): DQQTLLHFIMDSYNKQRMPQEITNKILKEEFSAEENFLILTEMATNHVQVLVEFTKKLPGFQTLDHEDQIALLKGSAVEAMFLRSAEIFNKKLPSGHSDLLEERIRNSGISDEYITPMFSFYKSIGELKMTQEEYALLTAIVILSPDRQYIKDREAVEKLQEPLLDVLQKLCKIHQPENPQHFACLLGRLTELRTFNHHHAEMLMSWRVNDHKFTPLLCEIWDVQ
Experiment: transient human FXR/Gal4-luciferase reporter assay (HLE GAL-FXR)
Details: HEK293 cells; for EC50: FXR EC50 (nM), Gal4-hFXR fusion reporter, Table 1; for pEC50: HLE GAL-FXR EC50, Gal4-hFXR fusion reporter

| EC50 [nM] | pEC50 | SMILES |
| --- | --- | --- |
| 89 | – | O=C(O)c1ccc2nc(N3CC4C(/C=C/c5c(-c6c(Cl)cccc6Cl)noc5C5CC5)C4C3)sc2n1 (stereo not shown) [Example 81] |
| 227 | – | O=C(O)c1cc2ccc(N3CC4C(/C=C/c5c(-c6c(Cl)cccc6Cl)noc5C5CC5)C4C3)cc2nn1 (stereo not shown) [Example 66] |
| 54 | – | O=C(O)c1cc(OC2CCC2)c2cc(N3CC4C(/C=C/c5c(-c6cccnc6C(F)(F)F)noc5C5CC5)C4C3)ccc2n1 (stereo not shown) [Example 142] |
| 16 | – | COc1cc(C(=O)O)nc2ccc(N3CC4C(/C=C/c5c(-c6ccccc6C(F)(F)F)noc5C5CC5)C4C3)cc12 (stereo not shown) [Example 132] |
| 108 | – | O=C(O)c1nsc2cc(N3CC4C(/C=C/c5c(-c6c(Cl)cncc6Cl)noc5C5CC5)C4C3)ccc12 (stereo not shown) [Example 95] |
| 63 | – | COc1cc(C(=O)O)nc2ccc(N3CC(/C=C/c4c(-c5ccccc5C(F)(F)F)noc4C4CC4)C3)cc12 [Example 154] |
| 223 | – | COc1cc(C(=O)O)nc2ccc(N3CC(/C=C/c4c(-c5cccnc5C(F)(F)F)noc4C4CC4)C3)cc12 [Example 169] |
| 219 | – | O=C(O)c1nccc2cc(N3CCC(/C=C/c4c(-c5c(Cl)cncc5Cl)noc4C4CC4)CC3)ccc12 [Example 104] |
| 40 | – | O=C(O)c1ccc(N2CC3C(/C=C/c4c(-c5c(Cl)cccc5Cl)noc4C4CC4)C3C2)cc1 (stereo not shown) [Example 47, (E)-4-(6-(2-(5-cyclopropyl-3-(2,6-dichlorophenyl)isoxazol-4-yl)vinyl)-3-azabicyclo[3.1.0]hexan-3-yl)benzoic acid] |
| 20 | – | O=C(O)c1cnc(N2CCC(/C=C/c3c(-c4c(Cl)cccc4Cl)noc3C3CC3)CC2)c(F)c1 [Example 21] |
| 156 | – | O=C(O)c1ccc2nc(N3CCC(/C=C/c4c(-c5c(Cl)cncc5Cl)noc4C4CC4)CC3)sc2n1 [Example 85] |
| 276 | – | Cn1cc(C(=O)O)c(=O)c2ccc(N3CC4C(/C=C/c5c(-c6c(Cl)cncc6Cl)noc5C5CC5)C4C3)cc21 (stereo not shown) [Example 180] |
| 178 | – | Cn1cc(C(=O)O)c2ccc(N3CC(/C=C/c4c(-c5ccccc5C(F)(F)F)noc4C4CC4)C3)cc21 [Example 201] |
| 214 | – | O=C(O)C1(c2ccc(N3CCC(/C=C/c4c(-c5c(Cl)cccc5Cl)noc4C4CC4)CC3)cc2)CC1 [Example 59] |
| 403 | – | CC1(/C=C/c2c(-c3c(Cl)cccc3Cl)noc2C2CC2)CCN(c2ccc(C(=O)O)cn2)CC1 [Example 34] |
| 112 | – | O=C(O)c1cc2ccc(N3CCC(/C=C/c4c(-c5ncccc5C(F)(F)F)noc4C4CC4)CC3)cc2cn1 [Example 115] |
| 2470 | – | O=C(O)c1cnc2ccc(N3CC4C(/C=C/c5c(-c6ccccc6C(F)(F)F)noc5C5CC5)C4C3)cc2n1 (stereo not shown) [Example 138] |
| 96 | – | Cc1nc(C(=O)O)cc2ccc(N3CCC(/C=C/c4c(-c5ccccc5OC(F)(F)F)noc4C4CC4)CC3)cc12 [Example 119] |
| 42 | – | O=C(O)c1cc(F)c2nc(N3CCC(/C=C/c4c(-c5ccccc5OC(F)(F)F)noc4C4CC4)CC3)sc2c1 [Example 43] |
| 78 | – | O=C(O)c1ccc(N2CCC(/C=C/c3c(-c4c(Cl)cccc4Cl)noc3C3CC3)CC2)cn1 [Example 30] |

| EC50 [nM] | pEC50 | SMILES |
| --- | --- | --- |
| 308 | – | O=C(O)c1cnc2cc(N3CC(/C=C/c4c(-c5c(Cl)cncc5Cl)noc4C4CC4)C3)ccc2n1 [Example 167] |
| 577 | – | O=C(O)c1cc(C(F)(F)F)c2cc(N3CC4C(/C=C/c5c(-c6ccccc6C(F)(F)F)noc5C5CC5)C4C3)ccc2n1 (stereo not shown) [Example 75] |
| 280 | – | O=C(O)c1cccc2nc(N3CC4C(/C=C/c5c(-c6c(Cl)cncc6Cl)noc5C5CC5)C4C3)sc12 (stereo not shown) [Example 93] |
| 414 | – | Cn1nc(N2CCC(/C=C/c3c(-c4c(Cl)cccc4Cl)noc3C3CC3)CC2)c2ncc(C(=O)O)cc21 [Example 31] |
| – | 6.61 | COc1cc(C(=O)O)cc(-c2csc(N3CC4C(/C=C/c5c(-c6c(Cl)cncc6Cl)noc5C5CC5)C4C3)n2)c1 (stereo not shown) [Example 208, (E)-3-(2-(6-(2-(5-Cyclopropyl-3-(3,5-dichloropyridin-4-yl)isoxazol-4-yl)vinyl)-3-azabicyclo[3.1.0]hexan-3-yl)thiazol-4-yl)-5-methoxybenzoic acid] |
| 472 | – | O=C(O)c1nc2ccc(N3CC4C(/C=C/c5c(-c6c(Cl)cncc6Cl)noc5C5CC5)C4C3)cc2s1 (stereo not shown) [Example 107] |
| 22 | – | O=C(O)c1cc(C(F)(F)F)c2cc(N3CC[C@H](/C=C/c4c(-c5ccccc5C(F)(F)F)noc4C4CC4)C3)ccc2n1 [Example 146] |
| 1600 | – | O=C(O)c1cccc(-c2nnc(N3CC4C(/C=C/c5c(-c6c(Cl)cncc6Cl)noc5C5CC5)C4C3)o2)c1 (stereo not shown) [Example 218] |
| 512 | – | O=C(O)c1ccc(N2CCC(/C=C/c3c(-c4ccccc4OC(F)(F)F)noc3C3CC3)CC2)nc1 [Example 42] |
| – | 7.19 | O=C(O)c1cc(F)c2nc(N3CCC(/C=C/c4c(C5CC5)nnn4-c4c(Cl)cccc4Cl)CC3)sc2c1 [Example 10, (E)-2-(4-(2-(4-Cyclopropyl-1-(2,6-dichlorophenyl)-1H-1,2,3-triazol-5-yl)vinyl)piperidin-1-yl)-4-fluorobenzo[d]thiazole-6-carboxylic acid] |
| 228 | – | O=C(O)c1cc(OC2CC(F)(F)C2)c2cc(N3CC(/C=C/c4c(-c5ccccc5C(F)(F)F)noc4C4CC4)C3)ccc2n1 [Example 152] |
| 154 | – | COCCOc1cc(C(=O)O)nc2ccc(N3CC4C(/C=C/c5c(-c6c(Cl)cncc6Cl)noc5C5CC5)C4C3)cc12 (stereo not shown) [Example 113] |
| 20 | – | O=C(O)c1cc(OC2CCC2)c2cc(N3CC4C(/C=C/c5c(-c6c(Cl)cncc6Cl)noc5C5CC5)C4C3)ccc2n1 (stereo not shown) [Example 136] |
| 189 | – | O=C(O)c1ccc(-c2ccc(N3CC(/C=C/c4c(-c5ccccc5C(F)(F)F)noc4C4CC4)C3)cc2)cc1 [Example 205] |
| 21 | – | O=C(O)c1c2ccc(N3CC4C(/C=C/c5c(-c6c(Cl)cccc6Cl)noc5C5CC5)C4C3)cc2nn1CC1CC1 (stereo not shown) [Example 212] |
| 22 | – | CC(C)Oc1cc(C(=O)O)nc2ccc(N3CCC(/C=C/c4c(-c5ccccc5OC(F)(F)F)noc4C4CC4)CC3)cc12 [Example 108] |
| 376 | – | Cn1cc(C(=O)O)c(=O)c2ccc(N3CC4C(/C=C/c5c(-c6ccccc6C(F)(F)F)noc5C5CC5)C4C3)cc21 (stereo not shown) [Example 190] |
| – | 6.97 | O=C(O)c1ccc(N2CCC(/C=C\c3c(-c4c(Cl)cccc4Cl)noc3C3CC3)CC2)nc1 [Example 3, (Z)-6-(4-(2-(5-cyclopropyl-3-(2,6-dichlorophenyl)isoxazol-4-yl)vinyl)piperidin-1-yl)nicotinic acid] |
| 26 | – | O=C(O)c1ccc2nc(N3CCC(/C=C/c4c(-c5ccccc5C(F)(F)F)noc4C4CC4)CC3)sc2n1 [Example 87] |
| 199 | – | COc1cc(C(=O)O)nc2c(F)cc(N3CC(/C=C/c4c(-c5ccccc5C(F)(F)F)noc4C4CC4)C3)cc12 [Example 215] |

| EC50 [nM] | pEC50 | SMILES |
| --- | --- | --- |
| 12 | – | O=C(O)c1ccc2nc(N3CCC(/C=C/c4c(-c5c(Cl)cccc5Cl)noc4C4CC4)CC3)sc2c1 [Example 22] |
| 117 | – | COc1cc(C(=O)O)cc(-c2ccc(N3CC(/C=C/c4c(-c5c(Cl)cncc5Cl)noc4C4CC4)C3)cc2)c1 [Example 219] |
| 64 | – | O=C(O)c1cccc(-c2ccc(N3CC(/C=C/c4c(-c5ccccc5C(F)(F)F)noc4C4CC4)C3)cc2)c1 [Example 207] |
| 671 | – | N#Cc1ccc(N2CCC(/C=C/c3c(-c4c(Cl)cccc4Cl)noc3C3CC3)CC2)cc1 [Example 50, (E)-4-(4-(2-(5-cyclopropyl-3-(2,6-dichlorophenyl)isoxazol-4-yl)vinyl)piperidin-1-yl)benzonitrile] |
| 164 | – | CC(C)Oc1cc(C(=O)O)nc2ccc(N3CC(/C=C/c4c(-c5ccccc5C(F)(F)F)noc4C4CC4)C3)cc12 [Example 149] |
| 41 | – | Clc1cccc(Cl)c1-c1noc(C2CC2)c1/C=C/C1C2CN(c3ccc(-c4nn[nH]n4)cc3)CC12 (stereo not shown) [Example 61] |
| 27 | – | O=C(O)c1cc(O[C@H]2CCOC2)c2cc(N3CC4C(/C=C/c5c(-c6c(Cl)cncc6Cl)noc5C5CC5)C4C3)ccc2n1 (stereo partly shown) [Example 128] |
| 96 | – | O=C(O)c1cc(OC2COC2)c2cc(N3CC(/C=C/c4c(-c5ccccc5C(F)(F)F)noc4C4CC4)C3)ccc2n1 [Example 151] |
| 34 | – | COc1cc(C(=O)O)cc(-c2ccc(N3CC(/C=C/c4c(-c5ccccc5C(F)(F)F)noc4C4CC4)C3)nc2)c1 [Example 222] |
| 1400 | – | COc1cc(C(=O)O)cc(-c2nnc(N3CC4C(/C=C/c5c(-c6c(Cl)cncc6Cl)noc5C5CC5)C4C3)s2)c1 (stereo not shown) [Example 223] |
| 47 | – | O=C(O)c1cc(F)c2nc(N3CCC(/C=C/c4c(C5CC5)cnn4-c4c(Cl)cccc4Cl)CC3)sc2c1 [Example 32] |
| 473 | – | COc1cc(C(=O)O)nc2sc(N3CC(/C=C/c4c(-c5ccccc5C(F)(F)F)noc4C4CC4)C3)nc12 [Example 153] |
| 43 | – | CCOc1cc(C(=O)O)nc2ccc(N3CC4C(/C=C/c5c(-c6cccnc6C(F)(F)F)noc5C5CC5)C4C3)cc12 (stereo not shown) [Example 156] |
| 14 | – | COc1cc(C(=O)O)nc2ccc(N3CCC(/C=C/c4c(-c5ncccc5C(F)(F)F)noc4C4CC4)CC3)cc12 [Example 125] |
| 343 | – | O=C(O)c1cc(O[C@H]2CCOC2)c2cc(N3CC(/C=C/c4c(-c5ccccc5C(F)(F)F)noc4C4CC4)C3)ccc2n1 [Example 193] |
| 150 | – | O=C(O)c1cc(C(F)(F)F)c2cc(N3CC(/C=C/c4c(-c5c(Cl)cncc5Cl)noc4C4CC4)C3)ccc2n1 [Example 162] |
| 1100 | – | COc1c(C(=O)O)cccc1-c1nc(N2CC3C(/C=C/c4c(-c5c(Cl)cncc5Cl)noc4C4CC4)C3C2)no1 (stereo not shown) [Example 168] |
| 65 | – | O=C(O)c1cc(OC2COC2)c2cc(N3CC(/C=C/c4c(-c5c(Cl)cncc5Cl)noc4C4CC4)C3)ccc2n1 [Example 160] |
